This is an account of results in US8232273B2, “Heterocyclic compounds and methods of use” (Genentech, Inc., priority 2008, dated 2012).

The test system of assay [1] is platelets. The assay can be described thus: Cell viability assay for platelets (platelet rich plasma, CellTiter-Glo). It counts as cell-based. Conditions: approximately 4 hours at 37 C. As for the experimental part:
Platelet rich plasma (PRP) was incubated with a compound of the invention for approximately 4 hours at 37° C. After incubation, platelets were equilibrated to room temperature for 20 minutes and then and equal volume of CELL TITER-GLO™ reagent (Promega Corporation) was added. Samples were mixed for two minutes and then allowed to equilibrate for an additional 10 minutes at room temperature. The luminescence generated from the samples was quantitated using a LJL Analyst plate reader. Data analysis was performed using GraphPad Prism 4.0.

Assay [2] has as its target T1, Bcl-xL (GST-Bcl-xL) (Homo sapiens, UniProt Q07817). Briefly: TR-FRET binding assay, competition with F-Bak for the Bcl-xL binding site. Conditions: values listed in the order of Table 1, read-out: TR-FRET assay results (Ki), Bcl-xL.
In assay [3] the target is T2, Bcl-2 (GST-Bcl-2) (Homo sapiens, UniProt P10415).
T2 construct: made in house
T2 sequence (P10415 whole entry, species assumed): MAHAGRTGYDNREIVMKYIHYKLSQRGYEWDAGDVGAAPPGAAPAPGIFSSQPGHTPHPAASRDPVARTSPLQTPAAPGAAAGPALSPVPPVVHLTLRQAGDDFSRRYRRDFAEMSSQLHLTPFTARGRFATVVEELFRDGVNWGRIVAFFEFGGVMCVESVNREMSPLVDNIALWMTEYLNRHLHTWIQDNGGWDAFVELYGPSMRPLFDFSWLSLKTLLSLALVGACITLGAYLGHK
The assay can be described thus: TR-FRET binding assay, competition with F-Bak for the Bcl-2 binding site. Conditions: Bcl-2, for comparison (selectivity). As to the method: For each assay plate, a probe/antibody and protein/antibody/probe mixture were included as a negative and a positive control, respectively. Fluorescence was measured on the Envision (Perkin Elmer) using a 340/35 nm excitation filter and 520/525 (F-Bak) and 495/510 nm (Tb-labeled anti-his antibody) emission filters. Dissociation constants (Ki) were determined using Wang's equation (see, Wang, Z. X. An exact mathematical expression for describing competitive binding of two different ligands to a protein molecule. FEBS Lett. 1995 360:111-114). The TR-FRET assay can be performed in the presence of varying concentrations of human serum (HS) or fetal bovine serum (FBS). For comparison, the measurement of the competition of compounds of the invention for other Bcl-2 family protein binding sites (e.g., Bcl-2, Mcl-1) using the TR-FRET binding assay was accomplish by substituting GST-Bcl-xL in the TR-FRET assay with other GST-labeled protein, e.g., GST-Bcl-2, GST-Mcl-1, prepared in-house.

For assay [4], the system named is Mcl-1-/- mouse embryonic fibroblasts (MEF). The assay can be described thus: Cell viability assay for Mcl-1-/- mouse embryonic fibroblasts (CellTiter-Glo). The assay is classed as cell-based. Conditions: Fibroblast, in the presence of 10% Fetal Bovine Serum, read-out: MEF Mcl-1-/- KO cell viability results (EC50). The text has this: a. Cell Viability Assay for Mcl-1^−/− Mouse Embryonic Fibroblasts (MEF): […]
In this assay, Mcl-1^(−/−) cells were used to confirm that cell apoptosis in the presence of BH3 mimetic small molecules was due to predominantly Bcl-xL inactivation. This inactivation leaves Bax/Bak unconstrained and results in apoptosis. The […]-GLO Luminescent Cell Viability Assay is a homogeneous method of determining the number of viable cells in culture based on quantitation of the ATP present. The amount of ATP correlates with the presence of metabolically active cells such that following cell lysis the amount of ATP present is proportional to the amount of luminescence measured.
Mcl-1^(−/−) mouse embryonic fibroblasts (MEFs) are an adherent cell line prepared in house. MEFs were grown in Iwaki 75 cm^2 tissue culture flasks (cat #3123-075) with FMA media which consists of • 89% DME Kelso • 10% heat-inactivated foetal calf serum (FCS) (Hyclone cat #SH30396.03) • 1% 10 mM asparagine (Fluka cat #11149) • 275 μl of a 1:2000 dilution of 2-mercaptoethanol is added to the final 500 ml volume of FMA (Sigma cat #M7522; diluted in MT-PBS)
FMA was stored at 4° C. and used at 37° C. MEFs were cultured in FMA media and harvested in MT-PBS and trypsin. For MEF cell viability assays, cells were seeded separately in plates with 10% FCS-FMA and 1% FCS-FMA.
Assays were performed using white, flat clear-bottom Greiner 384-well tissue culture grade (Interpath #781098) plates. The compounds were made up in Matrical 384-well, 25 μl V-bottomed plates (cat #MP101-2-PP), sealed with aluminium foil from Beckman Coulter (cat #538619) and stored at 12° C. overnight. Compound preparation and titrations were performed in AnalaR grade DMSO (Merck cat #1.02952.2500). The cell viability detection assay used was […]-GLO™ which is commercially available from Promega (cat #G7572), stored at −20° C. and used at 37° C.
Compounds of the invention were prepared as 10 mM solution in 100% DMSO and stored at −20° C. Compounds were thawed to room temperature and dispensed into a 384 well Matrical plate. Standard control compounds, e.g. 32.3 mM Etoposide, were added to the plate as controls.
The media was aspirated and the Mcl-1^(−/−) cells washed with 10 mls of warmed MT-PBS. MT-PBS was aspirated and 1 ml of trypsin was added. The T75 flasks were incubated at 37° C. until the cells became detached. 4 ml of 10% FCS FMA media was added to the trypsinized cells and the entire volume was transferred to a 50 ml centrifuge tube and centrifuged for 3 minutes at 250 g. The supernatant was aspirated and the pellet resuspended in 10 ml of 10% FCS FMA. 3 ml of this cell suspension was added to a clean 75 cm^2 flask containing 17 ml of 10% FCS FMA media, thus performing a 3:10 split. The remaining cell suspension was used to perform a 1:50 split into another 75 cm^2 flask for further culturing.
Cells were harvested as per method step 1 and the pellet resuspended in 3 mls 10% FCS FMA. Cell number was determined by counting in a Neubauer haemocytometer and the dilution calculated to achieve a density of 1×10^4 cells ml^−1 (500 cells per well in 50 μl media). Separate dilutions were prepared in 50 ml 10% FCS FMA and 50 ml 1% FCS FMA solutions respectively.
Four assay plates were set up per compound plate. Two 384 well plates containing Mcl-1^(−/−) cells in 10% FCS FMA and the other two plates containing Mcl-1^(−/−) cells in 1% FCS FMA.
Using the Multidrop, 25 μl cells were dispensed aseptically into all 384 wells of the assay plates. Plates were left to rest in a non-stacked layer at room temperature for approximately 30 minutes (minimizes edge-effects) and then were placed as a single layer in the 37° C. incubator. The plates were left to incubate overnight.
The compound plates were titrated by performing a 3-fold 11-point dilution series using 100% DMSO on the MiniTrak. Following titration of the compounds, 100 nl of compounds were added to the cell plates using the Zymark Sciclone Pintool. […]

In assay [5] the target is T1, Bcl-xL (GST-Bcl-xL). The assay can be described thus: AlphaScreen Bcl-xL binding assay, competition with biotinylated Bim peptide. More on the design: made in house. Conditions: values listed in the order of Table 1; read-out: Alphascreen results (IC50) against the Bcl-xL protein. The essentials: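 Acceptor beads with GST-Bcl-xL were combined with donor beads carrying biotinylated Bim peptide after each bead mix was preincubated 30 min at room temperature. Compounds in DMSO, 2-fold serially diluted, were incubated 30 min at room temperature before donor addition, with duplicate plates. Percent inhibition was taken against no-protein and DMSO controls, and IC50 was calculated.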

T1 sequence (Q07817 whole entry, species assumed): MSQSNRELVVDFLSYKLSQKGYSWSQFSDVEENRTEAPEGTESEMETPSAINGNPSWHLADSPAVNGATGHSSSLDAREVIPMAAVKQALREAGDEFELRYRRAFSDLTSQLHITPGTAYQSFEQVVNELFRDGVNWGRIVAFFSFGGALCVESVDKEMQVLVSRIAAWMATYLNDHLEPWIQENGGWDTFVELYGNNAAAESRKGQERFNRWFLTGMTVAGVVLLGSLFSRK

For `CN(C)CCCNc1ncnc2c1cnn2-c1ccc(OCCCc2sc(N3CCc4cccc(C(=O)Nc5nc6ccccc6s5)c4C3)nc2C(=O)O)cc1` [Example 54, 2-(8-(benzo[d]thiazol-2-ylcarbamoyl)-3,4-dihydroisoquinolin-2(1H)-yl)-5-(3-(4-(4-(3-(dimethylamino)propylamino)-1H-pyrazolo[3,4-d]pyrimidin-1-yl)phenoxy)propyl)thiazole-4-carboxylic acid], the EC50 in assay [1] was found to be 132 nM. In addition, the Ki in assay [2] was 0.05 nM.

For `N#Cc1ncccc1-c1ccc(OCCCc2sc(N3CCc4cccc(C(=O)Nc5nc6ccccc6s5)c4C3)nc2C(=O)O)cc1` [Example 58, 2-[8-(Benzothiazol-2-ylcarbamoyl)-3,4-dihydro-1H-isoquinolin-2-yl]-5-{3-[4-(2-cyano-pyridin-3-yl)-phenoxy]-propyl}-thiazole-4-carboxylic acid], the Ki in assay [3] was 310 nM; in assay [2], 0.5 nM. Also, the EC50 in assay [4] is 1300 nM.

On to `O=C(Nc1nc2ccccc2s1)c1cccc2c1CN(c1nc(C(=O)O)c(CCCOc3ccc(N4CCNCC4)cc3)s1)CC2` [Example 64, 2-[8-(Benzothiazol-2-ylcarbamoyl)-3,4-dihydro-1H-isoquinolin-2-yl]-5-[3-(4-piperazin-1-yl-phenoxy)-propyl]-thiazole-4-carboxylic acid], for which the figures for the Ki in assay [3] and in assay [2] were 90 nM and 0.05 nM, respectively. Further, in assay [4], the EC50 was 310 nM.

`CN(C)CCOc1ccc(OCCCc2sc(N3CCc4cccc(C(=O)Nc5nc6ccccc6s5)c4C3)nc2C(=O)O)cc1` [Example 75, 2-[8-(Benzothiazol-2-ylcarbamoyl)-3,4-dihydro-1H-isoquinolin-2-yl]-5-{3-[4-(2-dimethylamino-ethoxy)-phenoxy]-propyl}-thiazole-4-carboxylic acid]: the EC50 in assay [1] came to 9 nM. Besides, the Ki in assay [2] was determined as 0.05 nM. Moreover, in assay [5], the half-maximal inhibitory concentration (IC50) turned out to be 0.1 nM.

Regarding `O=C(Nc1nc2ccccc2s1)c1cccc2c1CN(c1nc(C(=O)O)c(CCCOc3ccc(-c4csc5c(NCCCN6CCCC6)ncnc45)cc3)s1)CC2` [Example 78, 2-[8-(Benzothiazol-2-ylcarbamoyl)-3,4-dihydro-1H-isoquinolin-2-yl]-5-(3-{4-[4-(3-pyrrolidin-1-yl-propylamino)-thieno[3,2-d]pyrimidin-7-yl]-phenoxy}-propyl)-thiazole-4-carboxylic acid], the EC50 in assay [1] came out at 3 nM. In assay [2], the Ki came out at 0.05 nM.

Regarding `CN1CCN(c2ncnc3c(-c4ccc(OCCCc5sc(N6CCc7cccc(C(=O)Nc8nc9ccccc9s8)c7C6)nc5C(=O)O)cc4)csc23)CC1` [Example 79, 2-[8-(Benzothiazol-2-ylcarbamoyl)-3,4-dihydro-1H-isoquinolin-2-yl]-5-(3-{4-[4-(4-methyl-piperazin-1-yl)-thieno[3,2-d]pyrimidin-7]-phenoxy}-propyl)-thiazole-4-carboxylic acid], in assay [1], the EC50 was 3 nM. In addition, in assay [2], the inhibitory constant (Ki) amounted to 0.1 nM.

`O=C(Nc1nc2ccccc2s1)c1cccc2c1CN(c1nc(C(=O)O)c(CCCOc3ccc(-c4ncccn4)cc3)s1)CC2` [Example 81, 2-[8-(Benzothiazol-2-ylcarbamoyl)-3,4-dihydro-1H-isoquinolin-2-yl]-5-[3-(4-pyrimidin-2-yl-phenoxy)-propyl]-thiazole-4-carboxylic acid]: the Ki was determined as 110 nM in assay [3] and 0.05 nM in assay [2]. In assay [4], the EC50 was determined as 10 nM.

Turning to `N#Cc1nccnc1-c1ccc(OCCCc2sc(N3CCc4cccc(C(=O)Nc5nc6ccccc6s5)c4C3)nc2C(=O)O)cc1` [Example 86, 2-[8-(Benzothiazol-2-ylcarbamoyl)-3,4-dihydro-1H-isoquinolin-2-yl]-5-{3-[4-(3-cyano-pyrazin-2-yl)-phenoxy]-propyl}-thiazole-4-carboxylic acid], in assay [1], the EC50 amounted to 10 nM. In addition, the inhibition constant Ki in assay [2] was determined as 0.07 nM.

In assay [1], `CN1CCN(c2cccc(OCCCc3sc(N4CCc5cccc(C(=O)Nc6nc7ccccc7s6)c5C4)nc3C(=O)O)c2)CC1` [Example 87, 2-[8-(Benzothiazol-2-ylcarbamoyl)-3,4-dihydro-1H-isoquinolin-2-yl]-5-{3-[3-(4-methyl-piperazin-1-yl)-phenoxy]-propyl}-thiazole-4-carboxylic acid] displayed an EC50 of 3 nM. Moreover, in assay [2], the Ki came out at 0.05 nM.

For `CN(C)CCOc1ccc(-c2ccc(OCCCc3sc(N4CCc5cccc(C(=O)Nc6nc7ccccc7s6)c5C4)nc3C(=O)O)cc2)nc1` [Example 90, 2-[8-(Benzothiazol-2-ylcarbamoyl)-3,4-dihydro-1H-isoquinolin-2-yl]-5-(3-{4-[5-(2-dimethylamino-ethoxy)-pyridin-2-yl]-phenoxy}-propyl)-thiazole-4-carboxylic acid], the EC50 in assay [1] was determined as 3 nM. The Ki in assay [2] amounted to 0.05 nM.

In assay [1], `CN(C)CCOc1ccc(-c2ccc(OCCCc3ccc(N4CCc5cccc(C(=O)Nc6nc7ccccc7s6)c5C4)nc3C(=O)O)cc2)nc1` [Example 95, 6-[8-(Benzothiazol-2-ylcarbamoyl)-3,4-dihydro-1H-isoquinolin-2-yl]-3-(3-{4-[5-(2-dimethylamino-ethoxy)-pyridin-2-yl]-phenoxy}-propyl)-pyridine-2-carboxylic acid] had an EC50 of 3 nM. Also, the Ki in assay [2] amounted to 0.05 nM.

The compound `O=C(Nc1nc2ccccc2s1)c1cccc2c1CN(c1ccc(CCCOc3ccc(-c4ncccn4)cc3)c(C(=O)O)n1)CC2` [Example 96, 6-[8-(Benzothiazol-2-ylcarbamoyl)-3,4-dihydro-1H-isoquinolin-2-yl]-3-[3-(4-pyrimidin-2-yl-phenoxy)-propyl]-pyridine-2-carboxylic acid] displayed an EC50 in assay [1] of 354 nM. In assay [2], the Ki amounted to 0.1 nM.
